From PMC11995724, “Antibiotic target discovery by integrated phenotypic and activity-based profiling of electrophilic fragments” (Cell chemical biology, 2025)

Assay: in vitro
Conditions: human, hek293t cells

| SMILES | viability at 48 h, 25 µM |
| --- | --- |
| CCOc1cc(C=C(C#N)C(=O)Nc2nccs2)cc(Cl)c1O [9-K22, 3-(3-chloro-5-ethoxy-4-hydroxyphenyl)-2-cyano-N-(1,3-thiazol-2-yl)prop-2-enamide] | 110% |
| COc1ccc(NC(=O)C(C#N)=Cc2cnc3c(C)cccn23)cc1 [9-L03, 2-cyano-N-(4-methoxyphenyl)-3-{8-methylimidazo[1,2-a]pyridin-3-yl}prop-2-enamide] | 111% |
| CCCCNC(=O)C(C#N)=Cc1c[nH]nn1 [9-L04, N-butyl-2-cyano-3-(1H-1,2,3-triazol-4-yl)prop-2-enamide] | 116% |
| CSc1ccc(C=C(C#N)C(=O)Nc2ccc3c(c2)OCCO3)cc1 [9-L05, 2-cyano-N-(2,3-dihydro-1,4-benzodioxin-6-yl)-3-[4-(methylsulfanyl)phenyl]prop-2-enamide] | 114% |
| C=CCNC(=O)C(C#N)=Cc1ccc2c(c1)OCCO2 [9-L06, 2-cyano-3-(2,3-dihydro-1,4-benzodioxin-6-yl)-N-(prop-2-en-1-yl)prop-2-enamide] | 86.7% |
| C=CCNC(=O)C(C#N)=Cc1c(C)nn(-c2ccc(F)cc2)c1Cl [9-L07, 3-[5-chloro-1-(4-fluorophenyl)-3-methyl-1H-pyrazol-4-yl]-2-cyano-N-(prop-2-en-1-yl)prop-2-enamide] | 91.8% |
| N#CC(=Cc1cccs1)C(=O)NCc1ccco1 [9-L08, 2-cyano-N-[(furan-2-yl)methyl]-3-(thiophen-2-yl)prop-2-enamide] | 110% |
| N#CC(=Cc1ccco1)C(=O)NC1CCN(c2ccc(F)cc2F)C1 (stereo not shown) [9-L09, 2-cyano-N-[1-(2,4-difluorophenyl)pyrrolidin-3-yl]-3-(furan-2-yl)prop-2-enamide] | 111% |
| C=CCNC(=O)C(C#N)=Cc1cccc2ccccc12 [9-L10, 2-cyano-3-(naphthalen-1-yl)-N-(prop-2-en-1-yl)prop-2-enamide] | 96.5% |
| N#CC(=Cc1cccs1)C(=O)Nc1ccccc1Cl [9-L11, N-(2-chlorophenyl)-2-cyano-3-(thiophen-2-yl)prop-2-enamide] | 112% |
| N#CC(=Cc1ccc(OC(F)F)c(Cl)c1)C(N)=O [9-L12, 3-[3-chloro-4-(difluoromethoxy)phenyl]-2-cyanoprop-2-enamide] | 106% |
| N#CC(=Cc1cccc(Cl)c1)C(=O)NCc1ccccc1 [9-L13, N-benzyl-3-(3-chlorophenyl)-2-cyanoprop-2-enamide] | 39.5% |
| CNC(=O)C(C#N)=Cc1cccc(-c2ccncc2)c1 [9-L14, 2-cyano-N-methyl-3-[3-(pyridin-4-yl)phenyl]prop-2-enamide] | 108% |
| Cn1cc(C=C(C#N)C(=O)Nc2ccccc2F)c(-c2ccncc2)n1 [9-L15, 2-cyano-N-(2-fluorophenyl)-3-[1-methyl-3-(pyridin-4-yl)-1H-pyrazol-4-yl]prop-2-enamide] | 130% |
| Cn1cc(C=C(C#N)C(=O)NC2CCCC2)c(-c2ccncc2)n1 [9-L16, 2-cyano-N-cyclopentyl-3-[1-methyl-3-(pyridin-4-yl)-1H-pyrazol-4-yl]prop-2-enamide] | 119% |
| COc1ccccc1C=CC=C(C#N)C(=O)Nc1ccccn1 [9-L17, 2-cyano-5-(2-methoxyphenyl)-N-(pyridin-2-yl)penta-2,4-dienamide] | 91.4% |
| CC(=O)N(C)c1cccc(NC(=O)C(C#N)=Cc2ccco2)c1 [9-L18, 2-cyano-3-(furan-2-yl)-N-[3-(N-methylacetamido)phenyl]prop-2-enamide] | 104% |
| N#CC1=C(N2CCOCC2)SC(c2cccc([N+](=O)[O-])c2)NC1=O (stereo not shown) [9-L19, 6-(morpholin-4-yl)-2-(3-nitrophenyl)-4-oxo-3,4-dihydro-2H-1,3-thiazine-5-carbonitrile] | 129% |
| CC(C)Oc1ccccc1C=C(C#N)C(=O)Nc1ccc(Cl)cc1 [9-L20, N-(4-chlorophenyl)-2-cyano-3-[2-(propan-2-yloxy)phenyl]prop-2-enamide] | 89.4% |
